From patent publication US8628771B2, “CA IX-specific inhibitors” (Institute of Virology Slovak Academy of Sciences, priority 2002, dated 2014)
Values joined by “and” are separate entries in the source; they are usually repeats but may differ in a detail not shown here. Equal values may be shown once. Where a name gives a salt, the structure may show the parent alone. Read-outs that look alike come from different tables or passages of the source.

Key:
MDCK-CA IX cells [1] = assay: Extracellular pH (pHe) of sulfonamide-treated MDCK-CA IX cells; format: cell-based, canine; settings: 48 hours; for effect on extracellular acidification: hypoxia (2% O2); for effect on the normoxic pHe: normoxia
Procedure: (§1) To maintain the standard conditions, the cells were always plated in 3 ml of culture medium at a density of 0.8-1×10^6 per 6 cm dish 24 hours before the transfer to hypoxia (2% O2 and 5% CO2 balanced with N2) generated in a Napco 7000 incubator. Parallel normoxic dishes were incubated in air with 5% CO2.
(§2) Compound 6 sulfonamide [4-(2-aminoethyl)-benzenesulfonamide] was from Sigma-Aldrich. […] The sulfonamides were dissolved in PBS with 20% DMSO at 100 mM concentration and diluted in a culture medium to a required final concentration just before their addition to cells. The cells were incubated for 48 hours in hypoxia and normoxia, respectively, the pH of the culture medium was measured and the binding of the FITC-labeled Compound 92 to living cells, washed three times with PBS, was viewed by a Nikon E400 epifluorescence microscope.

bCA IV = biological target: T1, bCA IV (Bos taurus, UniProt Q95323); assay: CA esterase activity assay, isozyme bCA IV; format: biochemical, bovine
T1 construct: CA IV was isolated from bovine lung microsomes as described by Maren et al; from tissue; host or cells: bovine lung microsomes
T1 sequence (Q95323 19-284): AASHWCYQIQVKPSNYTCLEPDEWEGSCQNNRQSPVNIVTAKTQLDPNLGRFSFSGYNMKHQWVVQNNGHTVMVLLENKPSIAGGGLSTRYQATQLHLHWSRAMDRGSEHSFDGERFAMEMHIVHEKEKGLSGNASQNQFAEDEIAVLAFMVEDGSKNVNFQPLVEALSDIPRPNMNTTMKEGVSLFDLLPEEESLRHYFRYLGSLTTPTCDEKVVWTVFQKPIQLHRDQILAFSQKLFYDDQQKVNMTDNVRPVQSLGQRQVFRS

hCA IX = hCA IX (Homo sapiens, UniProt Q16790); assay: CA CO2 hydrase activity assay, tumor-associated isozyme hCA IX
Procedure: An SX.18MV-R Applied Photophysics stopped-flow instrument has been used for assaying the CA CO2 hydration activity assays [44]. […] Inhibitor and enzyme solutions were preincubated together for 10 min at room temperature prior to assay, in order to allow for the formation of the E-I complex.

human red cells [2] = settings: pH 7.4
[3] = from reference [58]; cited from earlier work
hCA II = biological target: T2, hCA II (Homo sapiens, UniProt P00918); assay: CA esterase activity assay, isozyme hCA II; format: biochemical; settings: Table 2; human (cloned) isozymes; read-out: KI hCA II
T2 construct: made in house; host or cells: Escherichia coli BL21 (DE3)
Procedure: Human CA I and CA II cDNAs were expressed in Escherichia coli strain BL21 (DE3) from the plasmids pACA/hCA I and pACA/hCA II described by Lindskog's group [54].
Non-enzymatic hydrolysis rates were always subtracted from the observed rates. […] Inhibitor and enzyme solutions were preincubated together for 10 min at room temperature prior to assay, in order to allow for the formation of the E-I complex. The inhibition constant KI was determined as described in references [44, 76].

hCA I = biological target: T3, hCA I (Homo sapiens, UniProt P00915); assay: CA esterase activity assay, isozyme hCA I; format: biochemical; settings: Table 2; human (cloned) isozymes; read-out: KI hCA I
T3 construct: made in house; host or cells: Escherichia coli BL21 (DE3)

HeLa cells [4] = assay: Binding of FITC-labeled sulfonamide to HeLa cells (fluorescence microscopy); format: cell-based, human; settings: hypoxia versus normoxia, 48 hour incubation
MDCK-CA IX cells [5] = assay: Binding of FITC-labeled sulfonamide to MDCK-CA IX cells (fluorescence microscopy); format: cell-based, canine; settings: 48 hours
Procedure: as §1, §2

HeLa cells [6] = assay: Extracellular pH (pHe) of sulfonamide-treated HeLa cells; format: cell-based, human; settings: hypoxic HeLa cells, 1 mM, 48 hours
Procedure: as §1, §2

SiHa cells [7] = assay: Binding of FITC-labeled sulfonamide to SiHa cells (fluorescence microscopy); format: cell-based, human; settings: hypoxia versus normoxia, 48 hour incubation
SiHa cells [8] = assay: Extracellular pH (pHe) of sulfonamide-treated SiHa cells; format: cell-based, human; settings: hypoxic SiHa cells, 1 mM, 48 hours
Procedure: as §1, §2

human red cells [9] = assay: Membrane permeance assay: ex vivo penetration through red blood cells; settings: pH 7.4; for [sulfonamide] in red blood cells, HPLC: HPLC method; for [sulfonamide] in red blood cells, ES: electronic spectroscopic method; for [sulfonamide] in red blood cells, EI: enzymatic method

T3 sequence (P00915 whole entry): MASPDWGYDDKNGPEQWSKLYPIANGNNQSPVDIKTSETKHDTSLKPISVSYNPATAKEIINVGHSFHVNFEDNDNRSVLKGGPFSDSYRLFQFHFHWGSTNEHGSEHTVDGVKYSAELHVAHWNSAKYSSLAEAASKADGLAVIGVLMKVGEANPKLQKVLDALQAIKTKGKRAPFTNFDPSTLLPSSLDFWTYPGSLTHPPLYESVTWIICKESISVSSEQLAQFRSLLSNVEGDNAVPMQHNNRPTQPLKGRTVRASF

CC(C)(C)c1cc(-c2ccccc2)cc(-c2ccccc2)[n+]1-c1ccc(S(=O)(=O)Nc2nnc(S(N)(=O)=O)s2)cc1 (as salt: perchlorate) [Compound 85, 1-N-[5-Sulfamoyl-1,3,4-thiadiazol-2-yl-(aminosulfonyl-4-phenyl)]-2-tert-butyl-4,6-diphenylpyridinium perchlorate]
melting point: 203 to 205 °C

NS(=O)(=O)c1nnc(NS(=O)(=O)c2ccc(-[n+]3c(-c4ccccc4)cc(-c4ccccc4)cc3-c3ccccc3)cc2)s1 (as salt: perchlorate) [Compound 87, 1-N-[5-Sulfamoyl-1,3,4-thiadiazol-2-yl-(aminosulfonyl-4-phenyl)]-2,4,6-triphenyl-pyridinium perchlorate]
melting point: > 300 °C

NS(=O)(=O)c1nnc(NS(=O)(=O)c2ccc(-[n+]3c(-c4ccccc4)cccc3-c3ccccc3)cc2)s1 (as salt: perchlorate) [Compound 88, 1-N-[5-Sulfamoyl-1,3,4-thiadiazol-2-yl-(aminosulfonyl-4-phenyl)]-2,6-diphenylpyridinium perchlorate]
melting point: 218 to 220 °C

Cc1cc(C)[n+](-c2ccc(S(=O)(=O)Nc3nnc(S(N)(=O)=O)s3)cc2)c(C)c1C (as salt: perchlorate) [Compound 89, 1-N-[5-Sulfamoyl-1,3,4-thiadiazol-2-yl-(aminosulfonyl-4-phenyl)]-2,3,4,6-tetramethylpyridinium perchlorate]
melting point: > 300 °C

NCCc1ccc(S(N)(=O)=O)cc1 [Compound 6, 4-(2-aminoethyl)-benzenesulfonamide]
effect on extracellular acidification (MDCK-CA IX cells [1]): able to reduce the extracellular acidification | effect on the normoxic pHe (MDCK-CA IX cells [1]): negligible

Nc1ccc(S(=O)(=O)Nc2nnc(S(N)(=O)=O)s2)cc1 [Compound 15, 5-(4-aminobenzenesulfonylamino)-1,3,4-thiadiazole-2-sulfonamide]
Ki (bCA IV): ~5 nM | Ki (bCA IV; read-out: KI bCA IV): 5 nM and 5.1 nM | Ki (hCA IX; KI against CA IX): 14 to 50 nM | Ki (hCA IX; read-out: KI against CA IX): 38 nM | Ki (hCA IX; read-out: KI hCA IX): 38 nM | incubation period to saturation of hCA I and hCA II in erythrocytes with inhibitor (human red cells [2]; human, 2 mM): 60 min | [sulfonamide] in red blood cells, EI (human red cells [2]; human, 30 min, 2 mM): 122 µM | [sulfonamide] in red blood cells, ES (human red cells [2]; human, 30 min, 2 mM): 127 µM | [sulfonamide] in red blood cells, HPLC (human red cells [2]; human, 30 min, 2 mM): 125 µM | [sulfonamide] in red blood cells, EI (human red cells [2]; human, 60 min, 2 mM): 158 µM | [sulfonamide] in red blood cells, ES (human red cells [2]; human, 60 min, 2 mM): 156 µM | [sulfonamide] in red blood cells, HPLC (human red cells [2]; human, 60 min, 2 mM): 154 µM | pKa for the second sulfonamido group [3]: 3.2

Cc1cc(C)[n+](Cc2ccc(S(N)(=O)=O)cc2)c(C)c1 [Compound 39]
Ki (hCA II): 50 nM | Ki (bCA IV; Table 2, from bovine lung microsomes, read-out: KI bCA IV): 92 nM | effect on extracellular acidification (MDCK-CA IX cells [1]): able to reduce the extracellular acidification | effect on the normoxic pHe (MDCK-CA IX cells [1]): negligible | Ki (hCA IX; read-out: KI hCA IX, Table 2, catalytic domain of the human, cloned isozyme): 38 nM | Ki (hCA I): 7000 nM

NS(=O)(=O)c1ccc(CNC(=S)Nc2ccc3c(c2)C(=O)OC32c3ccc(O)cc3Oc3cc(O)ccc32)cc1 [Compound 92]
accumulation of FITC-labeled compound in cells (HeLa cells [4]): accumulated in the hypoxic HeLa and SiHa cells | detection of FITC-labeled compound in cells (MDCK-CA IX cells [5]; hypoxic MDCK-CA IX cells): detected only in hypoxic MDCK-CA IX cells | detection of FITC-labeled compound in cells (MDCK-CA IX cells [5]; normoxic MDCK-CA IX cells and mock-transfected controls): absent | effect on acidosis (pHe) (HeLa cells [6]): partially reduced | accumulation of FITC-labeled compound in cells (SiHa cells [7]): accumulated in the hypoxic HeLa and SiHa cells | effect on extracellular acidification (MDCK-CA IX cells [1]): able to reduce the extracellular acidification | effect on the normoxic pHe (MDCK-CA IX cells [1]): negligible | effect on acidosis (pHe) (SiHa cells [8]): partially reduced

CC(=O)/N=c1/sc(S(N)(=O)=O)nn1C [MZA, methazolamide]
[sulfonamide] in red blood cells, HPLC (human red cells [9]; t = 30 min, 2 mM sulfonamide in 5 mM Tris buffer): 170 µM | [sulfonamide] in red blood cells, ES (human red cells [9]; t = 30 min, 2 mM sulfonamide): 169 µM | [sulfonamide] in red blood cells, EI (human red cells [9]; t = 30 min, 2 mM sulfonamide): 165 µM | [sulfonamide] in red blood cells, HPLC (human red cells [9]; t = 60 min, 2 mM sulfonamide): 168 µM | [sulfonamide] in red blood cells, ES (human red cells [9]; t = 60 min, 2 mM sulfonamide): 168 µM | [sulfonamide] in red blood cells, EI (human red cells [9]; t = 60 min, 2 mM sulfonamide): 167 µM

Benzolamide [reference compound]
incubation period to saturation of hCA I and hCA II in erythrocytes with inhibitor (human red cells [2]): 60 min | pKa for the second sulfonamido group [3]: 3.2
